Values joined by “and” are separate entries in the source; they are usually repeats but may differ in a detail not shown here. Equal entries are not always repeated.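 Cultured in 96-well plates, cells were exposed to test compound for 48 hours across five concentrations. GI50 = concentration required for 50% inhibition of growth. Definition used: TGI = concentration required for complete inhibition of growth.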
What was measured:
Experiment in all cases: NCI anticancer screen, dose series, 48 h
[1] = test system: HCT-116 colon
[2] = test system: SR leukemia
[3] = test system: RPMI-8226 leukemia
[4] = test system: MOLT-4 leukemia
[5] = test system: DU-145 prostate
[6] = test system: MDA-MB-435
[7] = test system: HOP-62 NSCLC
[8] = test system: IGROV1 ovarian
[9] = test system: OVCAR-3 ovarian
[10] = test system: COLO 205 colon

Compound | TGI [1] | TGI [2] | TGI [3] [µM] | TGI [4] | TGI [5] | TGI [6] | TGI [7] | TGI [8] | TGI [9] | TGI [10] | GI50 [9] | GI50 [1] [µM] | GI50 [2] [µM] | GI50 [3] [µM] | GI50 [4] [µM] | GI50 [5] [µM] | GI50 [6] [µM] | GI50 [7] [µM] | GI50 [8] [µM] | GI50 [10] [µM]
CN(C)CCNC(=O)c1cccc2c(NCCN(C)C)c3ccccc3nc12 | 3.9 µM | 3.45 µM | 7.92 | 6.29 µM | 28.2 µM | 7.58 µM | 13.2 µM | 10.8 µM | 7.63 µM | 7.23 µM | – | – | – | – | – | – | – | – | – | –
O=C(/C=C/c1ccc(O)c(O)c1)OCCCc1ccccc1 | 22.4 µM | 22.8 µM | 49.4 | 36.4 µM | 31.6 µM | 24.6 µM | 26.6 µM | 12.1 µM | 6.6 µM | 27.1 µM | – | – | – | – | – | – | – | – | – | –
O=C1CC2(c3ccccc3)ON=C(c3ccccc3)N2c2ccccc2N1 (stereo unspecified) | > 100 µM | > 100 µM | > 100 | > 100 µM | > 100 µM | 53.2 µM | > 100 µM | > 100 µM | > 100 µM | > 100 µM | – | – | – | – | – | – | – | – | – | –
Oc1ccc(-c2nc(-c3cccnc3)c(-c3ccc(Cl)cc3)[nH]2)cc1O | 26.7 µM | > 100 µM | > 100 | > 100 µM | 90.8 µM | 30.3 µM | 25.3 µM | 18.6 µM | 14.5 µM | 30.3 µM | – | – | – | – | – | – | – | – | – | –
C[C@]12CC[C@H]3[C@@H](CC=C4C[C@@H](N5CCCC5)CC[C@@]43C)[C@@H]1C[C@H](N1CCOCC1)[C@@H]2O | > 100 µM | 71.5 µM | > 100 | > 100 µM | > 100 µM | > 100 µM | > 100 µM | > 100 µM | > 100 µM | > 100 µM | – | – | – | – | – | – | – | – | – | –
COC(=O)[C@]1(c2cc3ccccc3n2S(=O)(=O)c2ccccc2)CC2CN(C(C)=O)C1CC2=O (stereo partly specified) | 4.2 µM | 5.12 µM | 4.26 | 4.85 µM | 11.7 µM | 6.32 µM | 16.4 µM | 5.22 µM | 6.03 µM | 7.29 µM | – | – | – | – | – | – | – | – | – | –
CCCCC(=O)NS(=NC(=O)c1ccccc1)C(Cl)(Cl)Cl (stereo unspecified) | > 100 µM | > 100 µM | > 100 | > 100 µM | > 100 µM | > 100 µM | > 100 µM | > 100 µM | > 100 µM | > 100 µM | – | – | – | – | – | – | – | – | – | –
CCCCCCCCOC1C(O)C(O)C(O)C(O)C12CO2 (stereo unspecified) | > 100 µM | > 100 µM | > 100 | > 100 µM | > 100 µM | > 100 µM | > 100 µM | > 100 µM | > 100 µM | > 100 µM | – | – | – | – | – | – | – | – | – | –
CC(=O)OC(/C=C/c1ccccc1)P1(=O)N(CC(C)(C)C)[C@@H]2CCCC[C@H]2N1CC(C)(C)C (stereo partly specified) | 15 µM and 13.4 µM | 19.5 µM and 14.5 µM | 12.1 | 17.1 µM and 14.7 µM | 23.7 µM and 23.5 µM | 28.8 µM and 22.1 µM | 38.3 µM and 30.3 µM | 19.6 µM and 19.3 µM | 25.4 µM and 17.1 µM | 13.2 µM and 10.8 µM | 8.41 µM and 3.47 µM | – | – | – | – | – | – | – | – | –
CC(=O)OCCCOCn1c(Cc2ccccc2)c(C)c(=O)[nH]c1=O | > 100 µM | > 100 µM | > 100 | > 100 µM | > 100 µM | > 100 µM | > 100 µM | > 100 µM | > 100 µM | > 100 µM | – | – | – | – | – | – | – | – | – | –
COC(=O)C1C/C(=C/N(C)C)C(=S)N1 (stereo unspecified) | > 100 µM | > 100 µM | > 100 | > 100 µM | > 100 µM | > 100 µM | > 100 µM | > 100 µM | > 100 µM | > 100 µM | – | – | – | – | – | – | – | – | – | –
OC(c1cc2ccccc2o1)c1cc2ccccc2s1 (stereo unspecified) | > 10 µM | > 10 µM | > 10 | > 10 µM | > 10 µM | > 10 µM | > 10 µM | > 10 µM | > 10 µM | > 10 µM | – | – | – | – | – | – | – | – | – | –
COC(=O)CCC(=O)NC1=C(Nc2ccc(OC)cc2)C(=O)c2ccccc2C1=O | 25 µM | > 75.9 µM | 75.2 | 65.8 µM | 26.9 µM | 3.53 µM | 33.2 µM | 26 µM | 12.6 µM | 28 µM | – | – | – | – | – | – | – | – | – | –
Nc1ncnc2c1nnn2C1C=CC(COS(N)(=O)=O)C1 (stereo unspecified) | 36.3 µM | > 100 µM | 50.7 | > 100 µM | > 100 µM | 41.3 µM | > 100 µM | > 100 µM | 96.1 µM | 17.4 µM | – | – | – | – | – | – | – | – | – | –
S=C(NC1=NCC(CN2CCN(c3ccccc3)CC2)O1)Nc1ccccc1 (stereo unspecified) | > 100 µM | > 100 µM | > 100 | > 100 µM | > 100 µM | > 100 µM | > 100 µM | > 100 µM | > 100 µM | > 100 µM | – | – | – | – | – | – | – | – | – | –
CCOC(=O)c1ccc(Nc2c3c(nc4ccccc24)CCCC3)cc1 | > 100 µM | > 100 µM | > 100 | > 100 µM | > 100 µM | > 100 µM | > 83.9 µM | > 100 µM | > 100 µM | > 100 µM | – | – | – | – | – | – | – | – | – | –
O=C(Nc1cccc(-n2ccc3c(NC(=O)c4ccccc4)nccc32)c1)Nc1cc(C(F)(F)F)cc(C(F)(F)F)c1 | 6.31 µM | 6.48 µM | 2.85 | 36 µM | 7.97 µM | 3.21 µM | > 50 µM | > 50 µM | 3.18 µM | 5.29 µM | 1.28 µM | 1.69 | 1.72 | 1.13 | 1.92 | 1.68 | 1.23 | 3.75 | 2.46 | 1.68
